One molecule from article PMC2869248 (Psychopharmacology, 2010) can be followed below.

Usually EC50 stands for the midpoint of the concentration-response curve. High values mean lower potency in that assay, low ones higher potency in that assay. A word on the Ki: it is a dissociation constant, usually derived from enzyme kinetics or from competition with a known ligand.

The target in assay [1] is T1, cloned human KOR (hKOR), kappa-opioid receptor (Homo sapiens, UniProt P41145). Description: biochemical.
T1 sequence (P41145 whole entry): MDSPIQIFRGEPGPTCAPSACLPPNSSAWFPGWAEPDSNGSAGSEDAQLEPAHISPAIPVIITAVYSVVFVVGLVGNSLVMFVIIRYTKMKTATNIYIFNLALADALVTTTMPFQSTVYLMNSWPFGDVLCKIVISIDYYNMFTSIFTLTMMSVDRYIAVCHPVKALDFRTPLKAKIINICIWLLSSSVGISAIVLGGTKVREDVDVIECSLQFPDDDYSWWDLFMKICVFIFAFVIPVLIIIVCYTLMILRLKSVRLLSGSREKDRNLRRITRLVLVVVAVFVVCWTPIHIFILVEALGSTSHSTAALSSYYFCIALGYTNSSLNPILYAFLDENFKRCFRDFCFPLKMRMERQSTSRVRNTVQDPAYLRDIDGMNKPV
The target in assay [2] is T1, cloned human KOR (hKOR), kappa-opioid receptor.

With `CNC1(c2ccccc2Cl)CCCCC1=O` (centres unmarked) [ketamine], the 50% effective concentration (EC50) in assay [1] stood at 29 µM. Affinity in assay [2] was put at a Ki of 25 µM.
